# From patent US10183938B2, “Geminal substituted quinuclidine amide compounds as agonists of α-7 nicotonic acetylcholine receptors” (AXOVANT SCIENCES GMBH, priority 2014, dated 2019)
# Structures can show the parent of a compound that is named as a salt.
# Molecular target: human α7 nAChRs transiently expressed in Xenopus laevis oocytes (Homo sapiens (Human), UniProt P36544)
# Assay: Oocyte electrophysiology screen (TEVC)
# Format: cell-based
# Conditions: 0.01 mM test compound, peak current relative to 0.2 mM ACh
# Protocol: Oocyte Electrophysiology Screen (% ACh @ 10 μM Oocyte)
# The Oocyte Electrophysiology Screen studies were performed under contract by HiQScreen Geneva, Switzerland. All experiments were carried out at human α7 nAChRs transiently expressed in Xenopus laevis oocytes using the method of cDNA expression. Currents evoked by acetylcholine or other agonist ligands were recorded using the standard two-electrode voltage-clamp configuration (TEVC). X. laevis oocytes were prepared and injected using standard procedures. Briefly, ovaries were harvested from X. laevis females that were deeply anesthetized and pithed following the animal rights rule from the Geneva canton. A small piece of ovary was isolated for immediate preparation while the remaining part was placed at 4° C. in a sterile Barth solution containing in mM: NaCl 88, KCl 1, NaHCO3 2.4, HEPES 10, MgSO4.7H2O 0.82, Ca(NO3)2.4H2O 0.33, CaCl2.6H2O 0.41, at pH 7.4, and supplemented with 20 μg/mL of kanamycin, 100 unit/mL penicillin and 100 μg/mL streptomycin. […] Cells were held at −80 mV. Data were filtered at 10 Hz, captured at 100 Hz and analyzed using proprietary data acquisition and analysis software running under Matlab (Mathworks Inc.).
# Experimental Protocol and Analysis
# After establishing a baseline transmembrane current, acetylcholine (ACh) was applied for 5 seconds at a concentration of 0.2 mM to establish a control ACh-evoked current response. Following a wash period of 90 s in OR2 medium (free of ACh), cells were then exposed for 30 s to the test compound applied at 0.01 mM. The same reference ACh test pulse was immediately given at the end of the compound exposure and again after 90 s of recovery in OR2 Medium (free of ACh or test compound). All data were determined in triplicate. The response evoked by the test compound was expressed as a percentage of that evoked by ACh: Response (% ACh)=100×(Itest/IACh) where Itest is the peak inward current measured during exposure to 0.01 mM of test compound and IACh is the peak inward current measured in the presence of ACh.
# Chain of human α7 nAChRs transiently expressed in Xenopus laevis oocytes (P36544 23-502 limits assumed): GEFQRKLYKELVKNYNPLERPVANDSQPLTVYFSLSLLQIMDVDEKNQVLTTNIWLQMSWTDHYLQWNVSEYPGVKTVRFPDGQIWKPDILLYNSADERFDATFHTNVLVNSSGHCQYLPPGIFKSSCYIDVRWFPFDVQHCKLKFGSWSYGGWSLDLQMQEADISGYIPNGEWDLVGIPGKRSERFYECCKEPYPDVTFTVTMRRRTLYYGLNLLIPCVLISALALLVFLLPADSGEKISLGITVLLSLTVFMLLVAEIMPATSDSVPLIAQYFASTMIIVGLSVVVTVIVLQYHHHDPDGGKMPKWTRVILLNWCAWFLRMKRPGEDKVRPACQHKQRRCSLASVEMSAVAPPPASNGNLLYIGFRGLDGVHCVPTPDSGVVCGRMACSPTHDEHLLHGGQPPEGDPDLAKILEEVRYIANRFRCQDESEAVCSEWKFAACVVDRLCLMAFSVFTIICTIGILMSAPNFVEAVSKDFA
row,Compound,% ACh @ 10 μM Oocyte
1,"CC1(C)[C@@H](NC(=O)c2cc3ccc(F)cc3s2)C2CCN1CC2 [(S)-8, (S)—N-(2,2-dimethylquinuclidin-3-yl)-6-fluorobenzo[b]thiophene-2-carboxamide hydrochloride]",1 % ACh
2,"O=C(NC1C2CCN(CC2)C12CC2)c1ccc2ccsc2c1 (single isomer, unassigned; enantiomer2) [58b, N-(1′-azaspiro[cyclopropane-1,2′-bicyclo[2.2.2]octan]-3′-yl)benzo[b]thiophene-6-carboxamide-enantiomer2]",5 % ACh
3,"Cc1ccc2sc(C(=O)N[C@H]3C4CCN(CC4)C3(C)C)cc2c1 [(S)-16, (S)—N-(2,2-dimethylquinuclidin-3-yl)-5-methylbenzo[b]thiophene-2-carboxamide hydrochloride]",2 % ACh
4,"O=C(N[C@H]1C2CCN(CC2)C12CC2)c1cc2ccoc2cn1 [(S)-75, (S)—N-(1′-azaspiro[cyclopropane-1,2′-bicyclo[2.2.2]octan]-3′-yl)furo[2,3-c]pyridine-5-carboxamide hydrochloride]",14 % ACh
5,"Cn1cnc2cc(C(=O)N[C@@H]3C4CCN(CC4)C3(C)C)ccc21 [(R)-42, (R)—N-(2,2-dimethylquinuclidin-3-yl)-1-methyl-1H-benzo[d]imidazole-5-carboxamide hydrochloride]",0 % ACh
6,"CC1(C)[C@H](NC(=O)c2cc3ccc(C4CC4)c(F)c3s2)C2CCN1CC2.Cl [(R)-213, (R)-6-cyclopropyl-N-(2,2-dimethylquinuclidin-3-yl)-7-fluorobenzo[b]thiophene-2-carboxamide hydrochloride]",60 % ACh
7,"CC1(C)[C@@H](NC(=O)c2cc3cccc(Cl)c3s2)C2CCN1CC2 [(S)-3, (S)-7-chloro-N-(2,2-dimethylquinuclidin-3-yl)benzo[b]thiophene-2-carboxamide hydrochloride]",22 % ACh
8,"Cc1nc2cc(C(=O)N[C@@H]3C4CCN(CC4)C34CC4)ccc2s1 [(R)-87, (R)-2-methyl-N-(1′-azaspiro[cyclopropane-1,2′-bicyclo[2.2.2]octan]-3′-yl)benzo[d]thiazole-5-carboxamide hydrochloride]",341 % ACh
9,"CC1(C)[C@H](NC(=O)c2ccc3oc(Cl)cc3c2)C2CCN1CC2 [(R)-39, (R)-2-chloro-N-(2,2-dimethylquinuclidin-3-yl)benzofuran-5-carboxamide hydrochloride]",697 % ACh
10,"O=C(NC1C2CCN(CC2)C12CC2)c1cc2cc(Cl)c(Cl)cc2s1 (single isomer, unassigned; enantiomer1) [67a, 5,6-dichloro-N-(1′-azaspiro[cyclopropane-1,2′-bicyclo[2.2.2]octan]-3′-yl)benzo[b]thiophene-2-carboxamide-enantiomer1 hydrochloride]",1 % ACh
11,"CC1(C)[C@H](NC(=O)c2ccc3occc3n2)C2CCN1CC2 [(R)-37, (R)—N-(2,2-dimethylquinuclidin-3-yl)furo[3,2-b]pyridine-5-carboxamide hydrochloride]",5 % ACh
12,"CC1(C)[C@@H](NC(=O)c2cc3cc(Cl)c(Cl)cc3s2)C2CCN1CC2 [(S)-14, (S)-5,6-dichloro-N-(2,2-dimethylquinuclidin-3-yl)benzo[b]thiophene-2-carboxamide hydrochloride]",3 % ACh
13,"O=C(N[C@H]1C2CCN(CC2)C12CC2)c1cc2cccnc2s1 [(S)-81, (S)—N-(1′-azaspiro[cyclopropane-1,2′-bicyclo[2.2.2]octan]-3′-yl)thieno[2,3-b]pyridine-2-carboxamide hydrochloride]",1 % ACh
14,"CC1(C)[C@H](NC(=O)c2cc3ccccc3s2)C2CCN1CC2 [(R)-1, (R)—N-(2,2-dimethylquinuclidin-3-yl)benzo[b]thiophene-2-carboxamide hydrochloride]",401 % ACh
15,"O=C(NC1C2CCN(CC2)C12CC2)c1cc2cccc(Cl)c2s1 (single isomer, unassigned; enantiomer2) [56b, 7-chloro-N-(1′-azaspiro[cyclopropane-1,2′-bicyclo[2.2.2]octan]-3′-yl)benzo[b]thiophene-2-carboxamide-enantiomer2]",0 % ACh
16,"CC1(C)[C@@H](NC(=O)c2cc3ccc(C#N)cc3s2)C2CCN1CC2 [(S)-9, (S)-6-cyano-N-(2,2-dimethylquinuclidin-3-yl)benzo[b]thiophene-2-carboxamide hydrochloride]",1 % ACh
17,"CC1(C)[C@H](NC(=O)c2cc3ccc(F)c(C(F)(F)F)c3s2)C2CCN1CC2.Cl [(R)-211, (R)-N-(2,2-dimethylquinuclidin-3-yl)-6-fluoro-7-(trifluoromethyl)benzo[b]thiophene-2-carboxamide hydrochloride]",100 % ACh
18,"CC1(C)[C@@H](NC(=O)c2cc3cc(Cl)ccc3s2)C2CCN1CC2 [(S)-13, (S)-5-chloro-N-(2,2-dimethylquinuclidin-3-yl)benzo[b]thiophene-2-carboxamide hydrochloride]",3 % ACh
19,"Cc1nc2cc(C(=O)N[C@@H]3C4CCN(CC4)C3(C)C)ccc2s1 [(R)-34, (R)—N-(2,2-dimethylquinuclidin-3-yl)-2-methylbenzo[d]thiazole-5-carboxamide hydrochloride]",159 % ACh
20,"COc1ccc2sc(C(=O)N[C@@H]3C4CCN(CC4)C3(C)C)cc2c1 [(R)-21, (R)—N-(2,2-dimethylquinuclidin-3-yl)-5-methoxybenzo[b]thiophene-2-carboxamide hydrochloride]",73 % ACh

# Same assay, conditions: 0.01 mM test compound, peak current relative to 0.2 mM ACh; hydrochloride
row,Compound,% ACh @ 10 μM Oocyte
1,"O=C(NC1C2CCN(CC2)C12CC2)c1cc2cccc(F)c2s1 (single isomer, unassigned; enantiomer2) [57b, 7-fluoro-N-(1′-azaspiro[cyclopropane-1,2′-bicyclo[2.2.2]octan]-3′-yl)benzo[b]thiophene-2-carboxamide-enantiomer2 hydrochloride]",4 % ACh
2,"Nc1ccc2cc(C(=O)NC3C4CCN(CC4)C34CC4)sc2c1 (single isomer, unassigned; enantiomer2) [62b, 6-amino-N-(1′-azaspiro[cyclopropane-1,2′-bicyclo[2.2.2]octan]-3′-yl)benzo[b]thiophene-2-carboxamide-enantiomer2 hydrochloride]",995 % ACh
3,"O=C(NC1C2CCN(CC2)C12CC2)c1cc2ccc(Cl)cc2s1 (single isomer, unassigned; enantiomer2) [65b, 6-chloro-N-(1′-azaspiro[cyclopropane-1,2′-bicyclo[2.2.2]octan]-3′-yl)benzo[b]thiophene-2-carboxamide-enantiomer2 hydrochloride]",1 % ACh
4,"O=C(NC1C2CCN(CC2)C12CC2)c1cc2cc(C(F)(F)F)ccc2s1 (single isomer, unassigned; enantiomer1) [70a, N-(1′-azaspiro[cyclopropane-1,2′-bicyclo[2.2.2]octan]-3′-yl)-5-(trifluoromethyl)benzo[b]thiophene-2-carboxamide-enantiomer1 hydrochloride]",2 % ACh
5,"O=C(NC1C2CCN(CC2)C12CC2)c1cc2cc(C3CC3)ccc2s1 (single isomer, unassigned; enantiomer1) [72a, 5-cyclopropyl-N-(1′-azaspiro[cyclopropane-1,2′-bicyclo[2.2.2]octan]-3′-yl)benzo[b]thiophene-2-carboxamide-enantiomer1 hydrochloride]",188 % ACh
6,"CC1(C)C(NC(=O)c2cc3ccccc3s2)C2CCN1CC2 (single isomer, unassigned; enantiomer1) [1a, N-(2,2-dimethylquinuclidin-3-yl)benzo[b]thiophene-2-carboxamide-enantiomer1 hydrochloride]",1470 % ACh
7,"O=C(NC1C2CCN(CC2)C12CC2)c1cc2cccc(F)c2s1 (single isomer, unassigned; enantiomer1) [57a, 7-fluoro-N-(1′-azaspiro[cyclopropane-1,2′-bicyclo[2.2.2]octan]-3′-yl)benzo[b]thiophene-2-carboxamide-enantiomer1 hydrochloride]",386 % ACh
8,"O=C(NC1C2CCN(CC2)C12CC2)c1cc2cc(C(F)(F)F)ccc2s1 (single isomer, unassigned; enantiomer2) [70b, N-(1′-azaspiro[cyclopropane-1,2′-bicyclo[2.2.2]octan]-3′-yl)-5-(trifluoromethyl)benzo[b]thiophene-2-carboxamide-enantiomer2 hydrochloride]",1 % ACh
9,"O=C(NC1C2CCN(CC2)C12CC2)c1cc2ccccc2s1 (single isomer, unassigned; enantiomer1) [54a, N-(1′-azaspiro[cyclopropane-1,2′-bicyclo[2.2.2]octan]-3′-yl)benzo[b]thiophene-2-carboxamide-enantiomer1 hydrochloride]",4.5 % ACh
